# Assay results taken from patent US10159667B2, “Composition containing a DPP-IV inhibitor for preventing or treating renal diseases” (DONG-A ST CO., LTD, priority 2013, dated 2018).
# Marks after values point to notes of the source that are not given here.
# Experiments:
# [1] = tested on: db/db mice; test: Renal nephrin expression by immunostaining; format: in vivo; conditions: FIG. 13
# Source text: Nephrin is a protein expressed on cell membrane of podocyte which forms glomerular filtration membrane. Nephrin forms a filtration barrier by binding to adjacent podocyte. When proteinuria incurs due to glomerular damage, nephrin barrier is damaged because nephrin expression in podocyte decreases, and accordingly, urinary excretion of nephrin increases. Therefore, urinary excretion of nephrin and nephrin expression in kidney in the non-diabetic control group, the diabetic group and the DA1229 administration group were observed. […] In addition, kidneys were isolated from each group; renal tissues were separated, immunostained with nephrin-specific antibody, and observed by using a microscope. Result is shown in right-hand side of FIG. 13. It is shown that observed nephrin was few in the diabetic group compared to the non-diabetic control group, but much in the DA1229 administration group.
# [2] = tested on: db/db mice; test: Weight, food intake, water intake, fasting blood glucose, urine output, HbA1c and blood pressure in db/db mice; format: in vivo
# Method: 6-week old mice were used. db/m mice were set as the non-diabetic control group (7 for each stage, n=28), and divided db/db mice into the diabetic group (7 for each stage, n=28) and DA1229 administration group (n=8). 0.3% (W/W, 300 mg/kg/day) of DA1229, a DPP-IV inhibitor, was mixed with feed and provided to the DA1229 administration group while only feed was provided to the diabetic group. Weight, food intake, water intake, fasting blood glucose, urine output, hemoglobin A1c value (HbA1c) and blood pressure (i.e. systolic blood pressure, SBP) of the non-diabetic control group (db/m control group) and the diabetic group (db/db) were measured at week 0, 4, 8 and 12 of administration; and that of the DA1229 administration group were measured at week 12. HbA1c was measured by using the DCA 2000+ (Bayer Healthcare, Wuppertal, Germany) Analyzer.
# [3] = tested on: db/db mice; test: Histological evaluation of renal mesangial expansion (PAS staining); format: in vivo; conditions: 12th week of administration, FIG. 7
# Source text: Mesangial expansion incurs in kidney when renal destruction progresses in renal diseases. Therefore, glomerular mesangial expansion in the non-diabetic control group, the diabetic group and the DA1229 administration group was observed. […] Renal glomerular tissues were collected and sectioned by a microtome and embedded in paraffin after alcohol dehydration. The sections were stained by using PAS (periodic acid-Schiff); observed by using a microscope (STM6-LM Olympus NDT Inc, USA) (see FIG. 7B); and scored by a pathologist (see FIG. 7A.)
# [4] = tested on: db/db mice; test: Renal fibrosis: mRNA expression of TGF β1, Type IV collagen and PAI-1 by real-time PCR; conditions: 12th week, relative to β-actin, FIG. 10
# [5] = tested on: db/db mice; test: Microalbuminuria: 24 h urinary albumin excretion by ELISA; format: in vivo; conditions: FIG. 6
# Method: When diabetes is progressed, phenomena of renal glomeruli destruction and protein (albumin) excretion incur, and microalbuminuria is directed to a case when the amount of the excretion is small. Microalbuminuria is one of the initial indices of renal diseases, and the gomeruli destruction becomes more severe as diabetes progresses. Accordingly the amount of protein excretion will increase. […] Microalbuminuria was observed by measuring the amount of urinary excretion of albumin during 24 hours in the non-diabetic control group, the diabetic group and the DA1229 administration group at week 0, 4, 8 and 12 of administration. The amount of albumin excretion was measured by using a ELISA reader (Micro-Quant, Bio-Tek Instruments, Colmar, France) after using the ELISA kit (Shibayagi, Shibukawa, Japan).
# [6] = tested on: db/db mice; test: Urinary nephrin excretion by EIA, normalized by creatinine; format: in vivo; conditions: FIG. 13
# Source text: Nephrin is a protein expressed on cell membrane of podocyte which forms glomerular filtration membrane. Nephrin forms a filtration barrier by binding to adjacent podocyte. When proteinuria incurs due to glomerular damage, nephrin barrier is damaged because nephrin expression in podocyte decreases, and accordingly, urinary excretion of nephrin increases. Therefore, urinary excretion of nephrin and nephrin expression in kidney in the non-diabetic control group, the diabetic group and the DA1229 administration group were observed. […] It was then normalized by creatinine excretion, which is proportional to a volume of urination (measured by the modified Jaffe method) and shown in the left-hand side graph in FIG. 13.
# [7] = tested on: db/db mice; test: Renal fibrosis: immunohistochemistry of TGF β1, Type IV collagen and PAI-1; format: in vivo; conditions: 12th week
# Source text: Renal glomerular tissues were collected and sectioned by a microtome and embedded in paraffin after alcohol dehydration. The sections were stained via immunohistochemistry; each of deposited TGF β1, Type IV collagen and PAI-1 in kidney was observed by using a microscope (STM6-LM Olympus NDT Inc, USA) (see FIG. 8); and degree and range of the staining were scored by a pathologist (see FIG. 9).
# [8] = tested on: db/db mice; test: Plasma creatinine by modified Jaffe method; format: in vivo
# [9] = tested on: db/db mice; test: Blood lipid concentration in db/db mice; format: in vivo; conditions: 12th week of administration, FIG. 4
# Method: In diabetic patients, blood lipids are tend to be increased and lipids are tend to be deposited in liver (i.e. hepatic steatosis) due to failure of lipid metabolism. Following experiment has been conducted to confirm whether DA1229 improves lipid metabolism. […] Concentrations of lipids, that are total cholesterol, triglyceride, HDL-cholesterol and LDL-cholesterol, of plasma of the non-diabetic control group, the diabetic group and the DA1229 administration group were measured at 12th week of administration. Concentration of total cholesterol and triglyceride were measured by using a ELISA reader (Micro-Quant, Bio-Tek Instruments, Colmar, France) after using the GPO-Trinder kit (Sigma, St. Louis, Mo., USA); and HDL-cholesterol and LDL-cholesterol were measured by using a TBA-200FR NEO (Toshiba, Japan).
# [10] = tested on: podocytes; test: Nephrin expression in podocytes under glucose and angiotensin II stimuli (western blot); format: cell-based; conditions: 10 nM, 72 hours, 30 mM glucose and 100 nM angiotensin II, FIG. 18
# Method: Effects of DA1229, linagliptin, saxagliptin and sitagliptin on nephrin expression under stimuli of glucose and angiotensin II that are same to the stimulation occurring in diabetes were observed below.
# Podocytes were cultured for 72 hours in media containing 30 mM of glucose, 100 nM of angiotensin II; and any one of 10 nM of DA1229, 10 nM of linagliptin, 1 nM of saxagliptin and 10 nM of sitagliptin. After that, the media were removed; cells were lysed; and changes of intracellularly expressed nephrin were measured through western blot by using polyclonal antibody (Santa Crúz, SC-19000.)
# [11] = tested on: non-diabetic renal disease mouse model; test: Microalbuminuria and nephrin excretion in adriamycin (ADX) non-diabetic renal disease mouse model; format: in vivo, mice; conditions: for urinary excretion of albumin / urinary excretion of nephrin: ADX 13 mg/kg i.v. mice, vs control
# Method: Non-diabetic renal diseases occurs via induction of glomerular podocyte damage when injecting adriamycin (hereinafter, ADX) that is an anti-cancer agent. Thirty mice at the age of 6 weeks were divided into 3 groups (n=10/group) after single intravenous injection of 13 mg/kg of ADX. For the first group, the administration of DA1229 was initiated immediately and maintained while renal disease incurred and developed. For the second group, administration of DA1229 was performed 3 weeks after single ADX injection, for the purpose of administering DA1229 after renal disease was progressed to some degree. The third group was set as a control group without any additional action. DA1229 was administered as a mixture with diet at 0.3% (W/W, 300 mg/kg/day) to the first and second groups. Only feed was provided to the control group. Microalbuminuria and nephrin excretion of each group were measured at 5th week of administration.
# [12] = tested on: db/db mice; test: Renal lipid metabolism: mRNA expression of ABCA1 and HMG-CoA reductase; format: in vivo; conditions: 12th week, FIGS. 11 and 12
# [13] = tested on: db/db mice; test: Hepatic steatosis: H&E-stained liver sections; format: in vivo; conditions: 12th week of administration, FIG. 5
# Source text: Liver tissues collected from the non-diabetic control group, the diabetic group and the DA1229 administration group were sectioned by a microtome and embedded in paraffin after alcohol dehydration at 12th week of administration. These sections were stained by Hematoxylin-eosin, and then lipid deposition was observed by using a microscope (STM6-LM Olympus NDT Inc, USA) (see FIG. 5).
# [14] = DA1229 0.3% W/W in feed (300 mg/kg/day), wk 12, mean ± SEM
# [15] = DA1229 administered for 12 weeks
compound,measurement,setting,value
"CC(C)(C)OC[C@@H]1C(=O)NCCN1C(=O)C[C@H](N)Cc1cc(F)c(F)cc1F [DA1229, (R)-4-{(R)-3-amino-4-(2,4,5-trifluorophenyl)butanoyl}-3-(t-butoxymethyl)piperazin-2-one]",nephrin observed in renal tissue (immunostaining),[1],much
same,Daily Water Intake,[2]; [14],"8.6 ± 0.4**^,# g"
same,Fasting Blood Glucose,[2]; [14],466 ± 66 mg/dL
same,HbAlc,[2]; [14],8.58 ± 0.79 %
same,Urine Output,[2]; [14],1.07 ± 0.29 mL/day
same,fasting blood glucose compared to the diabetic group,[2]; [15],markedly decreased
same,urine output compared to the diabetic group,[2]; [15],no significant differences
same,water intake compared to the diabetic group,[2]; [15],markedly decreased
same,glomerular mesangial expansion,[3],improved to a level close to the non-diabetic control group
same,renal mRNA expression of PAI-1,[4],markedly decreased
same,renal mRNA expression of TGF β1,[4],markedly decreased
same,renal mRNA expression of Type IV collagen,[4],markedly decreased
same,microalbuminuria until 4th week,[5],not observed
same,amount of urinary excretion of albumin after 4th week,[5]; vs diabetic group,much smaller than that of the diabetic group
same,content of nephrin in urine,[6],markedly decreased
same,TGF β1 deposited in kidney (immunohistochemistry),[7]; FIGS. 8A and 9,markedly decreased
same,Type IV collagen deposited in kidney (immunohistochemistry),[7]; FIGS. 8B and 9,decreased to the level of the non-diabetic control group
same,PAI-1 deposited in kidney (immunohistochemistry),[7]; FIGS. 8C and 9,decreased to the level of the non-diabetic control group
same,Plasma Creatinine,"[8]; DA1229 300 mg/kg/day in feed, wk 12, ± SEM",29.0 ± 2.0 µmol/L
same,plasma creatinine compared to the diabetic group,[8]; wk 12,markedly decreased
same,plasma LDL-cholesterol concentration,[9],restored to the level of the non-diabetic control group
same,plasma total cholesterol concentration,[9],restored to the level of the non-diabetic control group
same,plasma triglyceride concentration,[9],restored to the level of the non-diabetic control group
same,nephrin expression in podocytes,[10],maintained equally to the control group
same,urinary excretion of albumin,"[11]; first group: DA1229 300 mg/kg/day started with induction of renal disease, FIG. 14A",significantly decreased
same,urinary excretion of nephrin,"[11]; first group: DA1229 300 mg/kg/day started with induction of renal disease, FIG. 14B",significantly decreased
same,urinary excretion of albumin,"[11]; second group: DA1229 300 mg/kg/day started 3 weeks after ADX, FIG. 15A",significantly decreased
same,urinary excretion of nephrin,"[11]; second group: DA1229 300 mg/kg/day started 3 weeks after ADX, FIG. 15B",significantly decreased
same,effect of decreasing albumin excretion over time,"[11]; ADX mice, second group, FIG. 15",became more significant as time passed
same,renal mRNA expression of ABCA1,[12],markedly increased
same,renal mRNA expression of HMG-CoA reductase,[12],decreased to the level of the non-diabetic control group
same,lipid deposition of liver tissues,[13],restored to the level of the non-diabetic control group
"N[C@@H](CC(=O)N1CCn2c(nnc2C(F)(F)F)C1)Cc1cc(F)c(F)cc1F [sitagliptin, reference compound]",nephrin expression in podocytes,[10],almost no difference compared to the group treated only with glucose and angiotensin II
